Measurements published in patent US8541455B2, “Derivatives of 2-pyridin-2-yl-pyrazol-3(2H)-one, preparation and therapeutic use thereof as HIF activators” (Sanofi, priority 2008, dated 2013).
Counter-ions that a name gives are not always drawn.

COC(=O)[C@H]1CCC[C@H]1N(C)S(=O)(=O)c1ccc(-n2[nH]cc(Cc3cccnc3)c2=O)nc1 (as salt: HCl) [Compound 131]
melting point: 156 °C

CCN(c1ccccc1)S(=O)(=O)c1ccc(-n2[nH]c(C)c(Cc3cncc(C#N)c3)c2=O)nc1 [Compound 97, 6-{4-[(5-cyanopyridin-3-yl)methyl]-3-methyl-5-oxo-2,5-dihydro-1H-pyrazol-1-yl}-N-ethyl-N-phenylpyridine-3-sulfonamide]
melting point: 164 °C

CCN(c1ccccc1)S(=O)(=O)c1ccc(-n2[nH]c(C)c(Cc3cccc(OC)c3)c2=O)nc1 [Compound 55]
melting point: 146 °C

CCN(c1ccccc1)S(=O)(=O)c1ccc(-n2[nH]cc(CCC(=O)OC)c2=O)nc1 [Compound 112]
melting point: 128 °C

COC(=O)c1ccc(-n2[nH]c(C)c(Cc3ccccc3Cl)c2=O)nc1 (as salt: HCl) [Compound 170]
melting point: 258 °C

Cc1[nH]n(-c2ccccn2)c(=O)c1Cc1ccc(S(C)(=O)=O)cc1 [Compound 180]
melting point: 144 °C

CN(c1ccccc1)S(=O)(=O)c1ccc(-n2[nH]cc(Cc3ccccc3)c2=O)nc1 [Compound 153]
melting point: 198 °C

CCN(C1CCCC1)S(=O)(=O)c1ccc(-n2[nH]cc(Cc3cccnc3)c2=O)nc1 (as salt: HCl) [Compound 115]
melting point: 110 °C

CCN(c1ccccc1)S(=O)(=O)c1ccc(-n2[nH]c(C)c(Cc3ccc(C#N)nc3)c2=O)nc1 [Compound 103]
melting point: 120 °C

O=c1c(Cc2ccccc2)c[nH]n1-c1ccc(S(=O)(=O)NCCO)cn1 [Compound 157]
melting point: 180 °C

COc1ccncc1Cc1c[nH]n(-c2ccc(S(=O)(=O)N(C)C3CCCC3)cn2)c1=O (as salt: HCl) [Compound 144]
melting point: 40 °C

CCNS(=O)(=O)c1ccc(-n2[nH]c(C)c(Cc3cccnc3)c2=O)nc1 (as salt: HCl) [Compound 89]
melting point: 196 °C

CN(C(C)(C)C)S(=O)(=O)c1ccc(-n2[nH]cc(Cc3ccccc3)c2=O)nc1 [Compound 100]
melting point: 186 °C

Cc1[nH]n(-c2ccccn2)c(=O)c1CCc1ccccc1 [Compound 196]
melting point: 128 °C

COCCOc1cccc(Cc2c(C)[nH]n(-c3ccccn3)c2=O)c1 [Compound 181]
melting point: 68 °C

Cc1[nH]n(-c2ccccn2)c(=O)c1Cc1ccncc1 (as salt: HCl) [Compound 176]
melting point: 208 °C

CCN(c1ccccc1)S(=O)(=O)c1ccc(-n2[nH]c(C)c(Cc3cccc(C(=O)OC)c3)c2=O)nc1 [Compound 111]
melting point: 172 °C

CCN(c1ccccc1)S(=O)(=O)c1ccc(-n2[nH]c(C)c(Cc3cncc(OC)c3)c2=O)nc1 [Compound 86]
melting point: 138 °C

COC(=O)CC(c1cccnc1)c1c[nH]n(-c2ccc(S(=O)(=O)NC(C)(C)C)cn2)c1=O (stereo not shown) (as salt: HCl) [Compound 154, methyl 3-(2-[5-(tert-butylsulfamoyl)pyridin-2-yl]-3-oxo-2,3-dihydro-1H-pyrazol-4-yl)-3-(pyridin-3-yl)propanoate]
melting point: 146 °C

COC(=O)C(c1ccccc1)c1c[nH]n(-c2ccc(S(=O)(=O)NC(C)(C)C)cn2)c1=O (stereo not shown) [Compound 113, methyl {2-[5-(tert-butylsulfamoyl)pyridin-2-yl]-3-oxo-2,3-dihydro-1H-pyrazol-4-yl}(phenyl)acetate]
melting point: 66 °C

Cc1[nH]n(-c2ccccn2)c(=O)c1Cc1ccncc1 [Compound 175]
melting point: 162 °C

O=c1c(Cc2ccccc2)c[nH]n1-c1ccc(S(=O)(=O)N(CC(CO)CO)C2CCCC2)cn1 [Compound 147, 6-(4-benzyl-5-oxo-2,5-dihydro-1H-pyrazol-1-yl)-N-cyclopentyl-N-[3-hydroxy-2-(hydroxymethyl)propyl]pyridine-3-sulfonamide]
melting point: > 260 °C

Cc1[nH]n(-c2ccc(S(=O)(=O)N(C(C)C)C(C)C)cn2)c(=O)c1Cc1ccc(Cl)cc1Cl [Compound 15]
melting point: 226 °C

CCN(c1ccccc1)S(=O)(=O)c1ccc(-n2[nH]c(CC(=O)N(C)C)c(Cc3ccccc3)c2=O)nc1 [Compound 109]
melting point: 163 °C

Cc1[nH]n(-c2ccccn2)c(=O)c1Cc1cccc(N(C)C)c1 (as salt: HCl) [Compound 190]
melting point: 132 °C

COc1ccc(OC)c(Cc2c(C)[nH]n(-c3ccccn3)c2=O)c1 [Compound 184]
melting point: 62 °C

CCOC(=O)CC(c1ccccc1)c1c[nH]n(-c2ccc(S(=O)(=O)NC(C)(C)C)cn2)c1=O (stereo not shown) [Compound 155]
melting point: 130 °C

CCN(c1ccccc1)S(=O)(=O)c1ccc(-n2[nH]c(C)c(Cc3cccnc3)c2=O)nc1 (as salt: hydrochloride) [Compound 43]
melting point: 128 °C

CCN(c1ccccc1)S(=O)(=O)c1ccc(-n2[nH]c(C)c(Cc3cccc(OCCN(C)C)c3)c2=O)nc1 (as salt: hydrochloride) [Compound 56, 6-(4-{3-[2-(dimethylamino)ethoxy]benzyl}-3-methyl-5-oxo-2,5-dihydro-1H-pyrazol-1-yl)-N-ethyl-N-phenylpyridine-3-sulfonamide hydrochloride]
melting point: 124 °C

Cc1[nH]n(-c2ccccn2)c(=O)c1Cc1cccc(C(F)(F)F)c1 [Compound 185]
melting point: 78 °C

CCN(c1ccccc1)S(=O)(=O)c1ccc(-n2[nH]c(C)c(Cc3cccc(OC)n3)c2=O)nc1 [Compound 78]
melting point: 174 °C

CCN(c1ccccc1)S(=O)(=O)c1ccc(-n2[nH]cc(Cc3ccccc3)c2=O)nc1 (as salt: HCl) [Compound 93, 6-(4-benzyl-5-oxo-2,5-dihydro-1H-pyrazol-1-yl)-N-ethyl-N-phenylpyridine-3-sulfonamide]
melting point: 180 °C

CCN(c1ccccc1)S(=O)(=O)c1ccc(-n2[nH]cc(CC3CCCC3)c2=O)nc1 [Compound 134]
melting point: 170 °C

Cc1[nH]n(-c2ccccn2)c(=O)c1Cc1ccccc1 [Compound 182]
melting point: 110 °C

CN(C)CCCN(C1CCCC1)S(=O)(=O)c1ccc(-n2[nH]cc(Cc3ccccc3)c2=O)nc1 (as salt: HCl) [Compound 123, 6-(4-benzyl-5-oxo-2,5-dihydro-1H-pyrazol-1-yl)-N-cyclopentyl-N-[3-(dimethylamino)propyl]pyridine-3-sulfonamide hydrochloride]
melting point: 230 °C

CN(C1CCCC1)S(=O)(=O)c1ccc(-n2[nH]cc(Cc3cccnc3)c2=O)nc1 (as salt: HCl) [Compound 117]
melting point: 124 °C

CCN(c1ccccc1)S(=O)(=O)c1ccc(-n2[nH]cc(CC(=O)N(C)C)c2=O)nc1 [Compound 105]
melting point: 168 °C

COc1cc(Cc2c(C)[nH]n(-c3ccccn3)c2=O)cc(OC)c1 [Compound 179]
melting point: 96 °C

CN(C)CC(C)(C)NS(=O)(=O)c1ccc(-n2[nH]cc(Cc3ccccc3)c2=O)nc1 (as salt: HCl) [Compound 152]
melting point: 230 °C

COC(C)(C)CNS(=O)(=O)c1ccc(-n2[nH]cc(Cc3ccccc3)c2=O)nc1 (as salt: HCl) [Compound 141]
melting point: 194 °C

CC(C)(C)NS(=O)(=O)c1ccc(-n2[nH]cc(Cc3cccnc3)c2=O)nc1 [Compound 98A, N-tert-butyl-6-[5-oxo-4-(pyridin-3-ylmethyl)-2,5-dihydro-1H-pyrazol-1-yl]pyridine-3-sulfonamide]
melting point: 220 °C

COc1ccc(Cc2c(C)[nH]n(-c3ccccn3)c2=O)cc1 [Compound 191]
melting point: 96 °C

COC(=O)CN(C1CCCC1)S(=O)(=O)c1ccc(-n2[nH]cc(Cc3cccnc3)c2=O)nc1 (as salt: HCl) [Compound 128, methyl N-cyclopentyl-N-({6-[5-oxo-4-(pyridin-3-ylmethyl)-2,5-dihydro-1H-pyrazol-1-yl]pyridin-3-yl}sulfonyl)glycinate hydrochloride]
melting point: 110 °C

CC(C)(C)OC(=O)c1ccc(-n2[nH]cc(Cc3cccnc3)c2=O)nc1 (as salt: HCl) [Compound 202]
melting point: 160 °C

Cc1[nH]n(-c2ccccn2)c(=O)c1Cc1cccnc1 [Compound 183]
melting point: 80 °C

COc1ccc(Cc2c(C)[nH]n(-c3ccc(S(=O)(=O)N(C)C(C)(C)C)cn3)c2=O)nc1 [Compound 160]
melting point: 165 °C

CCN(c1ccccc1)S(=O)(=O)c1ccc(-n2[nH]cc(CCC(=O)O)c2=O)nc1 [Compound 110]
melting point: 214 °C

CC(C)(C)COC(=O)c1ccc(-n2[nH]cc(Cc3cccnc3)c2=O)nc1 [Compound 198, 2,2-dimethylpropyl 6-[5-oxo-4-(pyridin-3-ylmethyl)-2,5-dihydro-1H-pyrazol-1-yl]pyridine-3-carboxylate]
melting point: 160 °C

COc1cncc(Cc2c(C)[nH]n(-c3ccc(S(=O)(=O)N(C)C(C)(C)C)cn3)c2=O)c1 [Compound 102]
melting point: 84 °C

Cc1[nH]n(-c2ccccn2)c(=O)c1Cc1cccc(C#N)c1 [Compound 177]
melting point: 90 °C

O=c1c(Cc2ccccc2)c[nH]n1-c1ccc(S(=O)(=O)N[C@H]2CCC[C@@H]2O)cn1 [Compound 149]
melting point: 176 °C

CCN(C1CCCC1)S(=O)(=O)c1ccc(-n2[nH]cc(Cc3ccncc3)c2=O)nc1 (as salt: HCl) [Compound 119]
melting point: 115 °C

Cc1[nH]n(-c2ccccn2)c(=O)c1Cc1ccc(N(C)C)cc1 [Compound 189]
melting point: 110 °C

Cc1[nH]n(-c2ccc(S(=O)(=O)Nc3ccccc3)cn2)c(=O)c1Cc1cccnc1 (as salt: HCl) [Compound 90]
melting point: 154 °C

CC(C)(C)CNS(=O)(=O)c1ccc(-n2[nH]cc(Cc3cccnc3)c2=O)nc1 (as salt: HCl) [Compound 136]
melting point: 123 °C

O=c1c(Cc2ccccc2)c[nH]n1-c1ccc(S(=O)(=O)N(C[C@H](O)CO)C2CCCC2)cn1 [Compound 148, 6-(4-benzyl-5-oxo-2,5-dihydro-1H-pyrazol-1-yl)-N-cyclopentyl-N-[(2S)-2,3-dihydroxypropyl]pyridine-3-sulfonamide]
melting point: 184 °C

CCc1[nH]n(-c2ccccn2)c(=O)c1Cc1ccccc1 [Compound 195]
melting point: 76 °C

CCN(c1ccccc1)S(=O)(=O)c1ccc(-n2[nH]c(C)c(Cc3ccc(OCCN(C)C)cc3)c2=O)nc1 [Compound 49]
melting point: 178 °C
